Article PMC8997832, “Genetic Engineering Production of Ethyl Carbamate Hydrolase and Its Application in Degrading Ethyl Carbamate in Chinese Liquor” (Foods, 2022)

Test system: T1, ethyl carbamate hydrolase (ECH; AcECH)
T1 construct: codon-optimized synthetic gene in pET24b (NdeI/XhoI), C-terminal His-tag kept, E. coli BL21(DE3), Ni-NTA purified; about 33 kDa by SDS-PAGE
Assay: Berthelot indophenol ammonia assay, […] nm; Lineweaver-Burk
Assay type: biochemical, Acinetobacter calcoaceticus
Conditions: free enzyme; 5-30 mM EC; standard assay 70 °C, pH 7.0 (not restated for kinetics)

CCOC(N)=O [EC, ethyl carbamate]
Km: 9.38 mM
